5 compounds from patent US11180444B2, “Polyimino ketoaldehydes” (NOVUM SPERO LTD., priority 2017, dated 2021) can be followed below.

For assay [1], the system named is Avian Pathogenic Escherichia coli multi-resistant strain. The experiment in a line: Inhibition zones, disc test. It is filed as cell-based.
For assay [2], the system named is gram-positive and gram-negative bacteria including multi-resistant bacteria. Description: In vitro testing of antibacterial properties. The assay is classed as cell-based.

“Also recorded” adds a separate entry of the source.

For the compound `CC1(C)S[C@@H]2[C@H](NC(=O)[C@H](N)c3ccc(O)cc3)C(=O)N2[C@H]1C(=O)O` [Amoxicillin, reference compound], in assay [1] (Escherichia coli, 25 μg per disc), the zone of inhibition at 25 µg/disc came to 0 mm.
As for `CN(C)[C@@H]1C(O)=C(C(N)=O)C(=O)[C@@]2(O)C(O)=C3C(=O)c4c(O)cccc4[C@@](C)(O)[C@H]3C[C@@H]12` [Tetracycline, reference compound], the zone of inhibition at 30 µg/disc in assay [1] (Escherichia coli, read-out: Inhibition zone) worked out at 0 mm.
Consider `Cc1cc(C)nc(NS(=O)(=O)c2ccc(N)cc2)n1` [Sulfadimidine, reference compound], for which the zone of inhibition at 300 µg/disc in assay [1] (Escherichia coli, 300 μg per disc) is 0 mm.
As for “1-amino-tetratriacontyl-henicosa-20-on-21-al [CM]”, the Inhibition zone in assay [1] (10 μL of solution (350 μg/1 μL) per disc) was found to be 8 mm; in assay [1] (15 μL of solution (350 μg/1 μL) per disc), 9 mm; in assay [1] (20 μL of solution (350 μg/1 μL) per disc), 10 mm. Further, the “Inhibitory activity against the strain (in words)” value in assay [1] (compared with antibiotics in their standard dose) is reported as “has an effect on the inhibition; also recorded: shows inhibitory activity”. Moreover, the “Antibacterial properties (in words)” value in assay [2] was “shows antibacterial properties”.
Consider “Trimethoprim sulphate [reference compound]”, for which, in assay [1] (1.25 μg + 23.75 μg per disc), the Inhibition zone is on record as 0 mm.
